The results in this text go back to PubChem BioAssay (NCI).

Common to all, as to test: growth of human tumour cells (NCI), 48 h
The subject of experiment [1] is HOP-92 NSCLC.
Experiment [2] deals with NCI/ADR-RES ovarian.
The subject of experiment [3] is DU-145 prostate.
The test system of experiment [4] is NCI-H23 lung.
Experiment [5] deals with CCRF-CEM leukemia.
In experiment [6] the test system is SN12C renal.
The subject of experiment [7] is NCI-H460 lung.
Experiment [8] relates to SF-268 CNS.
For experiment [9], the system named is HT29 colon.
The subject of experiment [10] is SR leukemia.

SMILES strings stand for the structures.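 Compound exposure: 48 hours, 5 concentrations, 96-well plates. At the GI50, growth is halved. TGI: total growth inhibition.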 Bounds are passed on as bounds.

Take `CCNCCNc1cc(-c2cccc(C(F)(F)F)c2)c(C#N)c2nc3ccccc3n12`: the GI50 in [1] is 1.69 µM; in experiment [2], 1.81 µM; in experiment [3], 1.47 µM; in experiment [4] it was 1.75 µM; in experiment [5] it was 0.29 µM; in experiment [6] it was 1.74 µM. Moreover, the GI50 in [7] was 0.457 µM; in experiment [8] it was 1.57 µM; in [9], 1.24 µM. The TGI in experiment [1] stood at 3.54 µM; in [2] it was 3.86 µM; in experiment [3], 2.83 µM; in experiment [4], 3.53 µM; in experiment [5], 0.798 µM; in experiment [6], 3.37 µM. Besides, the TGI in experiment [7] is 1.81 µM; in experiment [8], 3.12 µM; in experiment [9], 2.65 µM.

On to `N#CC(C#N)=Cc1ccc(-c2ccc(-c3nc4ccccc4o3)cc2)o1`, for which the GI50 in experiment [2] is 20.8 µM; in experiment [3], 36.5 µM; in [4] it was 27.2 µM; in experiment [5], 11.6 µM; in experiment [7], 38.4 µM; in experiment [8], 52 µM. Further, the GI50 in [9] is 41.2 µM. Besides, the TGI was 50.1 µM in experiment [2]; more than 100 µM in experiment [3]; 93.8 µM in experiment [4]; more than 100 µM in [5]; 16.5 µM in experiment [6]; more than 100 µM in [7]. Further, the TGI in [8] and in [9] was more than 100 µM in each case.

With `Cc1sc(/N=C2/NC(=O)CS2)nc1-c1nc(/N=C2/NC(=O)CS2)sc1C`, the GI50 is 21.2 µM in experiment [2]; more than 50 µM in experiment [3]; more than 50 µM in experiment [4]; more than 50 µM in [6]; 23.4 µM in experiment [7]; 36.4 µM in experiment [8]. Further, the results for the GI50 in experiment [10] and in experiment [9] were 24.9 µM and 32.2 µM, respectively. In addition, the TGI in experiment [2], in experiment [3], in experiment [4], in [6], in [7] and in [8] was more than 50 µM throughout. In addition, the TGI in [10] and in experiment [9] was more than 50 µM in each case.

As to `Oc1[nH]c2ccc(Cl)cc2c1/C=c1/ccc2c(c1)N=C(c1cc(F)cc(F)c1)N=2`, the GI50 in [1] was 2.41 µM; in [2], 2.32 µM; in experiment [3], 4.82 µM; in experiment [4], 5.01 µM; in [6], 5.41 µM; in experiment [8], 3.7 µM. Also, the GI50 in experiment [10] is 2.98 µM. Besides, the TGI in experiment [1] was 31.1 µM; in experiment [2], 5.87 µM; in [3], more than 100 µM; in experiment [4] it was more than 100 µM; in [6], more than 100 µM; in experiment [8], more than 100 µM. Further, the TGI in experiment [10] came to 7.95 µM.

As to `CC(C)N(C[C@H]1O[C@@H](n2cnc3c(N)ncnc32)[C@H](O)[C@@H]1O)C1CC(CCc2nc3ccc(C(C)(C)C)cc3[nH]2)C1` (some centres not stated), the GI50 in [1] was 31.4 µM; in experiment [2], more than 100 µM; in experiment [3] it was more than 100 µM; in [4], more than 100 µM; in experiment [5], more than 49.3 µM; in experiment [6], more than 100 µM. Also, the GI50 is more than 100 µM in [7], more than 100 µM in [8] and 94.8 µM in [9]. For the same compound, the TGI was more than 100 µM in [1]; more than 100 µM in experiment [2]; more than 100 µM in experiment [3]; more than 100 µM in [4]; more than 84.4 µM in [5]; more than 100 µM in [6]. For the same compound, the TGI in experiment [7], in experiment [8] and in experiment [9] was more than 100 µM in each case.

Turning to `CC1(C)CC2CC(C)(CN2c2ncnc3ccc(Br)cc23)C1` (configuration not stated), the GI50 in experiment [1] was 13.4 µM; in [2], 12.8 µM; in experiment [3], 12.4 µM; in [4], 8.74 µM; in experiment [5], 6.61 µM; in experiment [6], 10.3 µM. The GI50 was 11.1 µM in [7] and 17.9 µM in experiment [8]. In addition, the TGI in experiment [1] stood at 27.3 µM; in [2], 25.4 µM; in experiment [3], 24.9 µM; in experiment [4], 20.8 µM; in experiment [5], 39.8 µM; in experiment [6], 21.9 µM. The TGI in experiment [7] was determined as 35.2 µM; in experiment [8], 37.9 µM.

In the case of `Cc1c(N2C(=O)/C(=C\c3ccc(N(C)C)cc3)N=C2c2ccccc2)c(=O)n(-c2ccccc2)n1C`, the GI50 in experiment [1] was 31.8 µM; in experiment [2], 99.5 µM; in [3], 71.3 µM; in experiment [4], more than 92.2 µM; in experiment [6] it was more than 100 µM; in experiment [7], 62.9 µM. The GI50 was more than 76.9 µM in experiment [8], 58.8 µM in [10] and 49.5 µM in experiment [9]. The TGI in experiment [1], in experiment [2], in experiment [3], in [4], in [6] and in experiment [7] was more than 100 µM in each case. Also, the TGI in experiment [8], in experiment [10] and in experiment [9] was more than 100 µM in each case.

Consider `O=C1c2ccccc2C(=O)c2c(NC(=O)c3ccc4c5c(ncnc35)-c3ccccc3C4=O)cccc21`, for which the TGI in [1], in [2], in [3], in experiment [4], in experiment [6] and in experiment [7] was more than 100 µM in each case. In addition, the TGI in [8], in experiment [10] and in [9] was more than 100 µM in each case.

As to `CC(=O)N[C@@H](Cc1ccc(OP(=O)(O)O)cc1)C(=O)N[C@H]1CCC(=O)N2CCC[C@@H](C(=O)NCc3ccc(O)cc3)N2C1=O`, the GI50 in experiment [2], in experiment [3], in [4], in experiment [5], in experiment [6] and in [7] was more than 25 µM throughout. Besides, the GI50 in experiment [8], in [10] and in experiment [9] was more than 25 µM each time. The TGI in [2], in experiment [3], in experiment [4], in experiment [5], in [6] and in [7] was more than 25 µM each time. Further, the TGI in experiment [8], in experiment [10] and in experiment [9] was more than 25 µM in each case.
